Test system: Aedes aegypti
Assay: Repellent screening assay (in vitro membrane feeding, Hemotek feeder, treated cloth)
Assay type: in vivo
Conditions: for RD90: concentration producing 90% reduction in feeding rate, 30 min exposure
Excerpt: FIG. 1 is a photograph of the equipment used for the repellent screening assay. The apparatus includes a temperature-controlled feeder unit which includes a collagen casing covered by conventional cheese cloth. The collagen mimics the surface of human and is in contact with a heating element (not seen in FIG. 1) whose temperature is controlled by the temperature controller. The collagen pad is saturated with a solution that mimics human blood. The compound whose repellency is to be tested is applied to the cheese cloth, which is then affixed to the collagen pad. In the main panel in FIG. 1, the feeder unit is shown in its operational position, on top of a container in which are mosquitos (or any other arthropod) that is to be repelled. […] In practice, a known amount of putative repellent is applied to the cheese cloth. Unfed mosquitos, for example, are within the mosquito container. The feeder unit is then placed on top of the mosquito container for a pre-determined amount of time. The mosquitos are then sacrificed and examined to determine how many mosquitos fed (i.e., were not repelled) and how many mosquitos were still unfed after the test (i.e., were repelled). In this fashion, very reliable data can be generated regarding the effectiveness of any putative repellent composition. See Katritzky, A. R., et al. (2008) Proc. Nat. Acad. Sci. (US), 105:7359-7364 and Katritzky, A. R., et al. (2010) Journal of Med. Entomol., 47:924-938.
Unfed mosquitos are then used as test subjects. After the time course of each experiment is completed, the mosquitos are sacrificed and examined to determine how many mosquitos have fed (and thus were not repelled) versus how many mosquitos remain unfed (and thus were repelled). Fed versus unfed mosquitos can be separated by simple visual examination. Fed mosquites have an engorged, distended appearance. Representative images depicting the appearance of fed vs unfed mosquitoes resulting from the repellent screening assays is shown in FIG. 7. Images clearly show engorged abdomens and food red dye when mosquitoes were exposed to water only as negative repellent controls (FIG. 7, panel A).
A colony of the Aedes aegypti Liverpool strain was maintained at the University of Wisconsin according to standard procedures reported previously (Paskewitz et al., 1999; Kajla et al., 2010, Christensen et al., 1984). Anopheles gambiae and Culex pipiens (Iowa strain) were reared according to established protocols (Aliota et al., 2016) in a 100 square feet walk-in environmental chamber maintained at 26.5±0.5° C. and 80±5% relative humidity. For egg production, adult female mosquitoes were offered defibrinated rabbit blood (HemoStat Laboratories, Dixon, Calif., USA) via a Hemotek-brand membrane feeding system (Discovery Workshops, Accrington, UK) once a week. Adult mosquitoes were maintained on a constant exposure to 10% sucrose on cotton balls and larvae were fed Tetramin®-brand fish food. For repellent assays, nulliparous, mated, twenty 7-10 days old adult female mosquitoes were separated in screened pint-size paper containers (Neptune Paper Products, Fort Lee, N.J., USA). Mosquitoes were starved for 12-16 hours before the repellent assay. Mosquitoes were exposed to repellent compounds for 30 min at room temperature (incandescent light, 25-26° C.) between 10:00 am and 4:00 pm (see below for repellent assay set-up).
A Hemotek-brand feeding system was used to keep the feeding solution at a constant temperature set at 37° C. […]

SMILES	RE90 (relative efficacy)	Feeding (engorgement / red dye in abdomen) (1%, positive control, FIG. 7 panel B)	RD90
CCN(CC)C(=O)c1cccc(C)c1 [DEET, N,N-diethyl-3-methylbenzamide]	1	no feeding occurred	0.188 Percent concentration (v/v)
CCC(C)OC(=O)N1CCCCC1CCO (centres unmarked) [Picaridin]	0.37		0.498 Percent concentration (v/v)

From patent US11603386B2, “Insect, tick, and mite repellent derived from Xenorhabdus budapestensis” (Wisconsin Alumni Research Foundation, priority 2017, dated 2023)
